The record followed here is the COVID Moonshot data (paper PMC7615835).

As a reminder, the IC50 is the point on the concentration scale where inhibition reaches its midpoint.

Values joined by “and” are separate entries in the source; they are usually repeats but may differ in a detail not shown here. Identical values can stand only once.

The target in the experiment is SARS-CoV-2 Main Protease (SARS-CoV-2) (UniProt P0DTD1).
Take `CC(C)(C)c1ccc(N(C(=O)c2ccc(O)c(=O)o2)C(C(=O)NCCc2cccc(F)c2)c2cccnc2)cc1` (centres undefined): the IC50 was found to be 76.5 µM. The compound `COc1cccc(CNc2cc(Cl)cc(CC(=O)Nc3cncc4ccccc34)c2)c1OC` gave an IC50 of 2.48 µM. Then `CC(C)(C)OC(=O)N1CCC(NC(=O)C(c2cccnc2)N(C(=O)c2cocn2)c2ccc(C(C)(C)C)cc2)C1` (centres undefined), with 3.65 µM; and `COc1cccc(N2CCN(C(=O)c3cc(=O)[nH]c4ccccc34)CC2)c1`, with 7.55 µM; and `COC(=O)CCSc1cc(Cl)ccc1N(C(=O)c1ccco1)C(C(=O)NCCc1cccc(F)c1)c1cccnc1` (centres undefined), with 16.6 µM.

Turning to `O=C(Nc1cncc2ccccc12)C1=CCCc2ccc(Cl)cc21`, the IC50 was found to be 0.233 µM. Then `CCCOc1cc(Cl)cc2c1OCCC2C(=O)Nc1cncc2ccccc12` (centres undefined), with 5.63 µM; and `O=C(CN1CC(C(=O)Nc2cncc3ccccc23)c2cc(Cl)ccc2C1=O)NCC1CCC1` (centres undefined), with 0.107 µM.

For the compound `NS(=O)(=O)c1cc(CN2CCN(C(c3ccccc3)c3ccccc3)CC2)co1`, the IC50 is > 99.5 µM.

`O=C(Cc1cccc(Cl)c1)Nc1noc2ccccc12`: the IC50 is > 99.5 µM. Consider `Cc1nc2cc(C(=O)NNc3ccnc4cccnc34)ccc2o1`, for which the IC50 was > 99.5 µM. As to `O=C(Cc1cccc(Cl)c1)Nc1cn[nH]c1`, the IC50 was > 99.5 µM.

Consider `COCc1cc(Cl)cc(CN2CCN(C(=O)CCl)CC2)c1`, for which the IC50 is 4.77 µM. `O=C(NCCc1cccc(F)c1)C(c1cccnc1)N(C(=O)c1cnc[nH]1)c1cccc(Oc2cccnn2)c1` (centres undefined): the IC50 is > 99 µM.

As for `CNCC1CCCN(C(=O)[C@@H](c2ccccc2)N2Cc3ccccc3C2=O)C1` (stereo in doubt), the IC50 was > 99.5 µM. In turn, `C=CC(=O)N(c1ccc(C(C)(C)C)cc1)C(C(=O)Nc1ccc(OC)cc1OC)c1cccnc1` (centres undefined) registered an IC50 of 6.47 µM. Then `O=C(Nc1cccc(C(F)(F)F)c1)Nc1ccccc1Sc1ncc([N+](=O)[O-])s1`, with 6.26 µM; and `O=C(c1ccc2nnnn2c1)N1CCn2c(cc3ccccc32)C1`, with > 99.5 µM; and `C=CC(=O)N(c1ccc(C(C)(C)C)cc1)[C@@H](C(=O)NCCc1cccc(F)c1)c1cccnc1` (stereo in doubt), with 86.4 µM. Then `CC1(C(=O)Nc2cncc3cc(S(C)(=O)=O)ccc23)CN(CC(=O)NC2CC2)S(=O)(=O)c2ccc(Cl)cc21` (centres undefined), with 0.468 µM; and `CC(=O)C(=O)N1CCN(Cc2cccc(Cl)c2)[C@@H](CC(C)C)C1` (stereo in doubt), with > 99.5 µM; and `CC(=O)c1ccccc1C(=O)N(c1ccc(C(C)(C)C)cc1)C(C(=O)NCCc1cccc(F)c1)c1cccnc1` (centres undefined), with > 99.5 µM. Then `COC(C)(C)/C=C/C[C@@H](C)[C@H]1CC[C@@]2(C)[C@@H]3[C@@H](O[C@@H]4O[C@H](CO)[C@@H](O)[C@H](O)[C@H]4O)C=C4[C@@H](CC[C@H](O)C4(C)C)[C@]3(C=O)CC[C@]12C` (stereo in doubt), with > 99.5 µM. As to `CC(C)(C)c1ccc(N(C(=O)c2ccn[nH]2)C(C(=O)NCCc2cccc(F)c2)c2cccnc2)cc1` (centres undefined), the IC50 turned out to be 1.78 µM.

Regarding `CC(C)CS(=O)(=O)N1Cc2ccc(Cl)cc2C(C(=O)Nc2cncc3ccc(C(C)(C)O)cc23)C1` (centres undefined), the half-inhibitory concentration (IC50) stood at 1.22 µM. `Cc1ccncc1NC(=O)[C@H](C)OC(F)F` (stereo in doubt): the IC50 was > 99.5 µM. For `NS(=O)(=O)NCCNS(=O)(=O)c1ccccc1[N+](=O)[O-]`, the IC50 is > 99.5 µM.

As to `O=CN1CCC(OC(=O)c2c[nH]nc2-c2ccc(Cl)cc2)CC1`, the IC50 was > 99.5 µM. Then `Cc1ccncc1NC(=O)Cc1cc(Cl)cc(OCc2ncc[nH]2)c1`, with > 99.5 µM; and `O=C(Nc1cncc2ccccc12)C12CC(C1)Oc1ccc(Cl)cc12`, with 56.4 µM; and `N#CC1(CS(=O)(=O)NCc2ccc(Cl)cc2CC(=O)Nc2cncc3ccccc23)CC1`, with 0.133 µM. For the compound `O=C(Cc1ccc(Cl)cc1)Nc1cncc2ccccc12`, the IC50 was found to be 23.7 µM.

In turn, `O=C(Cc1cc(Cl)cc(Nc2nnc(-c3ccncc3)s2)c1)Nc1cncc2ccccc12` came in with an IC50 of 2.19 µM. The compound `O=S(=O)(Cc1ccccc1F)c1oc(-c2ccc(F)cc2)nc1S(=O)(=O)c1ccccc1` yielded an IC50 of 0.397 µM. `Cc1cc(C)nc(C#N)n1`: the IC50 is > 99.5 µM. Under `O=C(Cc1c[nH]c2cc(Cl)ccc12)Nc1cccc2[nH]c(=O)[nH]c12` stands > 99.5 µM; under `Cc1ccc(S(=O)(=O)NCCNC(=O)N2CCN(S(=O)(=O)N3CCCC3)CC2)cc1`, > 99.5 µM. Under `CC(C)(C)c1ccc(N(C(=O)c2cocn2)C(C(=O)NCc2cccnc2)c2cccnc2)cc1` (centres undefined) stands 25.3 µM; under `C=CC(=O)N1CCN(S(=O)(=O)c2cccc(F)c2)CC1`, > 99.5 µM; under `Cc1c(C(=O)CCl)c2ccccn2c1C(=O)c1ccc(F)cc1`, 0.719 µM. Under `O=C(Cc1cc(Cl)cc(Nc2ccc(C(F)(F)F)cc2[N+](=O)[O-])c1)Nc1cncc2ccccc12` stands 2.24 µM; under `COc1cccc2ncc(NC(=O)Cc3cccc(Cl)c3)n12`, > 99.5 µM. Regarding `O=C(Cc1cc(Cl)cc(N(C2CCCCC2)C2CCCCC2)c1)Nc1cncc2ccccc12`, the IC50 worked out at 2.3 µM. For the compound `C=CC(=O)N(Cc1ccccc1Cl)C(C(=O)NC(C)(C)C)c1cccnc1` (centres undefined), the IC50 was > 99.5 µM. Then `N#Cc1ncn(CC(=O)Nc2ccc(Br)cc2Cl)n1`, with 15.7 µM; and `O=C(Cn1nnc2ccccc21)N(Cc1ccsc1)c1ccc(N2CCOCC2)cc1`, with 11.6 µM; and `COc1cc(Nc2cc(Cl)cc(CC(=O)Nc3cncc4ccccc34)c2)ccc1Br`, with 1.89 µM. As to `O=C(Cc1cccc(Cl)c1)Nc1n[nH]c2ccc(F)cc12`, the IC50 was > 99.5 µM. Under `Cc1cc2c(N3CCc4[nH]c5ccccc5c4C3)nccn2n1` stands > 99.5 µM. Then `N#Cc1ncc(F)cn1`, with > 99.5 µM; and `O=C(Nc1cnn2ccccc12)C1CCS(=O)(=O)c2ccc(Cl)cc21` (centres undefined), with 3.89 µM; and `N#Cc1ccc2c(NC(=O)Cc3cccc(Cl)c3)cncc2c1`, with 9 µM. Under `CS(=O)(=O)c1ccccc1C(=O)N1CCC(C2CCNC2)CC1` (centres undefined) stands > 99.5 µM; under `O=C(Cc1cc(Cl)cc(Nc2c(Cl)cncc2Cl)c1)Nc1cncc2ccccc12`, 2.04 µM. `O=C(NCCc1cccc(F)c1)C(c1cccnc1)N(C(=O)c1ccco1)[C@H]1C[C@H](c2cc(F)cc(F)c2)C1` (some centres undefined): the IC50 is > 99.5 µM. Consider `CN(C)S(=O)(=O)NCC1(C(=O)Nc2cncc3ccccc23)CCOc2ccc(Cl)cc21` (centres undefined), for which the IC50 was found to be 2.73 µM. Then `O=C(Cc1cc(Cl)cc(Nc2ccc(OC(F)(F)F)cc2Cl)c1)Nc1cncc2ccccc12`, with 1.9 µM.

Take `O=C(Cc1cc(Cl)cc(Nc2ccc(Cl)nc2Cl)c1)Nc1cncc2ccccc12`: the IC50 is 2.31 µM. Turning to `CC(C)CN1CC(C)(C(=O)Nc2cncc3ccccc23)c2cc(Cl)ccc2S1(=O)=O` (centres undefined), the IC50 stood at 0.153 µM.

`COC1(CS(=O)(=O)N2CC(C(=O)Nc3cncc4cc(S(C)(=O)=O)ccc34)c3cc(Cl)ccc3C2=O)CC1` (centres undefined) returned an IC50 of 0.773 µM. For `O=C(Cc1cc(Cl)cc(NCc2ccc(-c3ccccc3)cc2)c1)Nc1cncc2ccccc12`, the IC50 worked out at 1.53 µM. Then `O=C(Cc1cc(Cl)cc(Nc2ccc(-n3ccnc3)cc2)c1)Nc1cncc2ccccc12`, with 2.46 µM.

Consider `CN(C)C(=O)c1cc2c(NC(=O)C3CCOc4ccc(Cl)cc43)cncc2s1` (centres undefined), for which the IC50 was found to be 0.399 µM. Under `CC(=O)N1CCN(CC(=O)Nc2cnccc2C2CC2)CC1` stands > 99.5 µM; under `Clc1ccc2c(c1)C1(CCO2)CCN(c2cncc3ccccc23)C1` (centres undefined), > 99.5 µM; under `Cc1ccncc1NC(=O)Cc1cc(Cl)cc(NS(C)(=O)=O)c1`, 21.8 µM. In the case of `Cc1ccnnc1NC(=O)Cc1cccc(Cl)c1`, the IC50 is > 99.5 µM. Then `NC(=O)c1c(Nc2cc(Cl)cc(CC(=O)Nc3cncc4ccccc34)c2)sc2c1CCCC2`, with 2.43 µM; and `O=C(Nc1cnccc1CO)[C@@H]1COc2ccc(Cl)cc21` (stereo in doubt), with 42.7 µM and 42 µM.

In the case of `COc1cc(Cl)c(C)cc1Nc1cc(Cl)cc(CC(=O)Nc2cncc3ccccc23)c1`, the half-maximal inhibitory concentration (IC50) was 1.58 µM.

Take `O=C(Cc1cccc(Cl)c1)Nc1[nH]nc2cccc(F)c12`: the IC50 is > 99.5 µM. Then `COc1cccc2[nH]c(=O)cc(C(=O)N3CCN(c4cccc(Cl)c4)CC3)c12`, with 4.68 µM. With `COc1cc(N(C(=O)c2cocn2)C(C(=O)NCCc2cccc(F)c2)c2cccnc2)ccc1S(=O)(=O)N(C)C` (centres undefined), the IC50 was > 99.5 µM. Regarding `O=C(Cc1cc(Cl)cc(Nc2ncc(Br)cc2O)c1)Nc1cncc2ccccc12`, the IC50 amounted to 3.23 µM. For `O=C(Nc1cncc2cc(CN3CC4(CNC4)C3)ccc12)C1CCOc2ccc(Cl)cc21` (centres undefined), the IC50 is 1.44 µM. Under `O=C(Cc1cccc(Cl)c1)Nc1cncc2ccc(OCC(F)(F)F)cc12` stands 1.09 µM; under `CC(C)(C)c1ccc(N(C(=O)c2cocn2)C(C(=O)NCCc2cccc(F)c2)c2cnccn2)cc1` (centres undefined), 1.21 µM; under `O=C(Cc1cc(Cl)cc(Nc2cc(C(F)(F)F)ccn2)c1)Nc1cncc2ccccc12`, 1.84 µM. `O=C(CCl)N1CCN(S(=O)(=O)c2ccsc2)[C@H](C(=O)N2CCOCC2)C1` (stereo in doubt) yielded an IC50 of 2.88 µM. The compound `O=C(Cc1cc(Cl)cc(Nc2ccccc2I)c1)Nc1cncc2ccccc12` showed an IC50 of 2.17 µM. For `COc1ccc2cncc(NC(=O)C3CCNc4cc(Cl)c(Cl)cc43)c2c1` (centres undefined), the IC50 is 0.131 µM. In the case of `Cc1cc(C(=O)N2CCC(C3CCNC3)CC2)cc(S(=O)(=O)N(C)C)c1C` (centres undefined), the IC50 is > 99.5 µM. As for `C=CC(=O)NCCC(=O)N(Cc1ccccc1)Cc1nc2ccccc2c(=O)[nH]1`, the IC50 was > 99.5 µM. In the case of `Cc1ccncc1NC(=O)Cc1ccccc1N`, the IC50 is > 99.5 µM. As to `CN(C(=O)c1ccco1)C(C(=O)NCCc1cccc(F)c1)c1cccnc1` (centres undefined), the IC50 was > 99.5 µM. Turning to `COc1cc(OC)cc(-c2nc(-c3c(C)nc4sccn34)no2)c1`, the IC50 is > 99.5 µM.

Consider `O=C(Cc1ccc(Cl)c(Cl)c1)Nc1cncc2ccccc12`, for which the IC50 is 0.178 µM and 0.384 µM.

Compound `Cc1ccc(C)c(S(=O)(=O)N2CCN(C(=O)CCl)CC2)c1` came in with a 50% inhibitory concentration (IC50) of 14.2 µM. With `Cc1nc2cc(NC(=O)Cn3cnc4c(cnn4C)c3=O)ccc2o1`, the IC50 is > 99.5 µM.
